The values that follow come from DBAASP.

Converted amounts (≈) assume the structure as drawn.

What all share (experiment): ≥ marks a high value that may be exact or a test limit, other limits are often not marked, values filed in µg/mL are converted to µM
Experiment [1] concerns Pseudomonas aeruginosa KCTC 1637.
The test system of experiment [2] is Staphylococcus aureus KCTC 1621.
For experiment [3], the system named is Candida albicans KCTC 7270.
In experiment [4] the test system is Saccharomyces cerevisiae KCTC 7296.
Experiment [5] relates to Escherichia coli O157:H7 ATCC 43895.
The subject of experiment [6] is Aspergillus fumigatus KCTC 6145.
Experiment [7] concerns Staphylococcus epidermidis KCTC 1917.
The subject of experiment [8] is Listeria monocytogenes KCTC 3710.
Experiment [9] deals with Escherichia coli KCTC 1682.
Experiment [10] has as its system Staphylococcus epidermidis.
The subject of experiment [11] is Bacillus subtilis KCTC 1918.
For experiment [12], the system named is Fusarium verticillioides.
In experiment [13] the test system is Botrytis cinerea.
For experiment [14], the system named is Escherichia coli.
In experiment [15] the test system is Pseudomonas aeruginosa.
Experiment [16] relates to Salmonella typhimurium KCTC 1926.
The subject of experiment [17] is Proteus vulgaris.
Experiment [18] deals with Trichosporon beigelii KCTC 7707.
Experiment [19] has as its system Aspergillus flavus KCTC 9471.
In experiment [20] the test system is Staphylococcus aureus MRSA-15.
For experiment [21], the system named is Acinetobacter baumannii Q13-0717.
Experiment [22] relates to Campylobacter jejuni NCTC 11161.
For experiment [23], the system named is Staphylococcus aureus ATCC 29213.
In experiment [24] the test system is Salmonella typhimurium SL1344.
The subject of experiment [25] is Staphylococcus aureus Q14-0320.
Experiment [26] concerns Staphylococcus aureus USA 300.
Experiment [27] concerns Campylobacter jejuni ATCC 33292.
In experiment [28] the test system is Staphylococcus aureus ATCC 33591.
The test system of experiment [29] is Enterococcus faecalis JH-2-2.
The subject of experiment [30] is Acinetobacter baumannii.
Experiment [31] has as its system Klebsiella pneumoniae NCTC 13442.
In experiment [32] the test system is Staphylococcus aureus RN4220.
Experiment [33] deals with Klebsiella pneumoniae Q14-0285.
The subject of experiment [34] is Campylobacter jejuni.
Experiment [35] has as its system Klebsiella pneumoniae ATCC 700603.
The test system of experiment [36] is Pseudomonas aeruginosa Q14-0890.
Experiment [37] has as its system Pseudomonas aeruginosa ATCC 27853.
The subject of experiment [38] is Listeria monocytogenes NCTC 11994.
Experiment [39] has as its system Pseudomonas aeruginosa PAO1.
Experiment [40] relates to Staphylococcus aureus NCTC 12493.
Experiment [41] relates to Campylobacter jejuni NCTC 11351.
Experiment [42] concerns Pseudomonas aeruginosa Q14-0208.
Experiment [43] has as its system Escherichia coli K-12.
Experiment [44] concerns Streptococcus pneumoniae.
For experiment [45], the system named is Citrobacter sp.
The subject of experiment [46] is Staphylococcus aureus.
Experiment [47] concerns Pseudomonas aeruginosa ATCC 15442.
For experiment [48], the system named is Acinetobacter baumannii ATCC 15308.
Experiment [49] relates to Staphylococcus aureus ATCC 25923.
In experiment [50] the test system is Klebsiella pneumoniae.
Experiment [51] relates to Escherichia coli ATCC 25922.
For experiment [52], the system named is Enterobacter cloacae.
For experiment [53], the system named is Staphylococcus aureus USA 300 LAC.
Experiment [54] concerns Klebsiella pneumoniae ATCC 13883.

In general, MIC refers to the lowest concentration that inhibits growth of the organism. The low end stands for greater potency, the high end for weaker potency. Turning to `CC[C@H](C)[C@H](NC(=O)[C@H](CCCCN)NC(=O)[C@H](CO)NC(=O)[C@H](Cc1ccccc1)NC(=O)[C@H](CC(C)C)NC(=O)[C@H](CCCCN)NC(=O)[C@H](CCC(=O)O)NC(=O)[C@H](CC(C)C)NC(=O)[C@H](CCCN=C(N)N)NC(=O)[C@H](CCCCN)NC(=O)[C@H](Cc1ccccc1)NC(=O)[C@@H](NC(=O)[C@H](CCCCN)NC(=O)[C@H](CCCCN)NC(=O)[C@H](C)N)C(C)C)C(=O)N[C@@H](CCC(N)=O)C(=O)N[C@@H](CC(N)=O)C(=O)N[C@@H](CC(=O)O)C(=O)N[C@@H](CCCCN)C(N)=O` [AKKVFKRLEKLFSKIQNDK], the MIC in experiment [1] was 1.56 µM (≈ 3.62 µg/mL); in experiment [2], 12.5 µM (≈ 29 µg/mL); in [3], 25 µM (≈ 58 µg/mL); in experiment [4] it was 25 µM (≈ 58 µg/mL); in [5], 12.5 µM (≈ 29 µg/mL); in experiment [6], at least 50 µM. Also, the MIC in experiment [7] stood at 3.12 µM (≈ 7.25 µg/mL); in experiment [8] it was 6.25 µM (≈ 14.5 µg/mL); in [9] it was 12.5 µM (≈ 29 µg/mL); in experiment [10], 6.25 µM (≈ 14.5 µg/mL); in experiment [11], 3.13 µM (≈ 7.26 µg/mL); in [12], 25 µM (≈ 58 µg/mL). Besides, the MIC in experiment [13] worked out at 12.5 µM (≈ 29 µg/mL); in experiment [14], 3.13 µM (≈ 7.26 µg/mL); in experiment [15], 6.25 µM (≈ 14.5 µg/mL); in experiment [16], 1.56 µM (≈ 3.62 µg/mL); in [17], 4.42 µM (≈ 10.3 µg/mL); in [18] it was 3.13 µM (≈ 7.26 µg/mL). In addition, the MIC in [19] is at least 50 µM.
For the molecule `CC[C@H](C)[C@H](NC(=O)[C@H](CCCN=C(N)N)NC(=O)[C@@H](NC(=O)[C@H](CC(C)C)NC(=O)[C@H](CC(C)C)NC(=O)[C@H](CCCCN)NC(=O)[C@H](CC(N)=O)NC(=O)[C@@H](NC(=O)[C@H](CCCN=C(N)N)NC(=O)[C@H](CCCN=C(N)N)NC(=O)[C@H](CC(C)C)NC(=O)[C@@H](N)Cc1cnc[nH]1)[C@@H](C)CC)[C@@H](C)O)C(=O)NCC(=O)N[C@@H](CC(C)C)C(=O)N[C@@H](Cc1ccc(O)cc1)C(=O)N[C@@H](CCCN=C(N)N)C(=O)N[C@@H](Cc1cnc[nH]1)C(=O)N[C@@H](C)C(=O)N[C@@H](Cc1ccccc1)C(=O)NCC(=O)O` [HLRRINKLLTRIGLYRHAFG], the minimal inhibitory concentration (MIC) in experiment [20] is 13.1 µM (≈ 32 µg/mL); in experiment [21] it was 3.29 µM (≈ 8 µg/mL); in experiment [22] it was 13.1 µM (≈ 32 µg/mL); in experiment [23], over 52.6 µM; in [24] it was 13.1 µM (≈ 32 µg/mL); in experiment [25], at least 52.6 µM. Moreover, the MIC was at least 105 µM in experiment [26]; 13.1 µM (≈ 32 µg/mL) in experiment [27]; at least 52.6 µM in experiment [28]; 13.1 µM (≈ 32 µg/mL) in [29]; 6.57 µM (≈ 16 µg/mL) in experiment [30]; at least 52.6 µM in experiment [31]. In addition, the MIC in experiment [32] was 13.1 µM (≈ 32 µg/mL); in experiment [33] it was 26.3 µM (≈ 64 µg/mL); in [34], at least 52.6 µM; in experiment [35], 26.3 µM (≈ 64 µg/mL); in [36] it was 26.3 µM (≈ 64 µg/mL); in experiment [37], over 52.6 µM. Moreover, the MIC in experiment [38] was 13.1 µM (≈ 32 µg/mL); in experiment [39], 52.6 µM (≈ 128 µg/mL); in experiment [40], 26.3 µM (≈ 64 µg/mL); in [41], at least 52.6 µM; in experiment [14], over 52.6 µM; in experiment [15] it was 105 µM (≈ 256 µg/mL). Besides, the MIC in [42] was 13.1 µM (≈ 32 µg/mL); in experiment [43], 26.3 µM (≈ 64 µg/mL).
Regarding `NC(=O)[C@H](CCCN=C(N)N)NC(=O)[C@H](CCCN=C(N)N)NC(=O)[C@H](Cc1c[nH]c2ccccc12)NC(=O)[C@@H]1CCCN1C(=O)[C@H](Cc1c[nH]c2ccccc12)NC(=O)[C@H](CCCN=C(N)N)NC(=O)[C@@H]1CCCN1C(=O)[C@H](Cc1c[nH]c2ccccc12)NC(=O)[C@H](CCCN=C(N)N)NC(=O)[C@H](Cc1c[nH]c2ccccc12)NC(=O)[C@@H]1CCCN1C(=O)[C@H](CCCN=C(N)N)NC(=O)[C@@H](N)CCCN=C(N)N` [RRPWRWPRWPWRR], the MIC was 31.4 µM (≈ 62.5 µg/mL) in experiment [44]; at least 126 µM in [45]; 31.4 µM (≈ 62.5 µg/mL) in experiment [46]; 15.7 µM (≈ 31.2 µg/mL) in [47]; at least 126 µM in experiment [48]; 15.7 µM (≈ 31.2 µg/mL) in [49]. For the same molecule, the results for the MIC in [50], in experiment [51] and in [52] were over 126 µM, 15.7 µM (≈ 31.2 µg/mL) and at least 126 µM, respectively.
On to `CC[C@H](C)[C@H](NC(=O)[C@H](CCCN=C(N)N)NC(=O)[C@H](CCCN=C(N)N)NC(=O)[C@H](CC(C)C)NC(=O)[C@H](Cc1c[nH]c2ccccc12)NC(=O)[C@H](Cc1c[nH]c2ccccc12)NC(=O)[C@@H](N)Cc1c[nH]c2ccccc12)C(=O)N[C@@H](CCCN=C(N)N)C(N)=O` [WWWLRRIR], for which the MIC in [26] stood at 12.5 µM (≈ 15.9 µg/mL); in experiment [53], 12.5 µM (≈ 15.9 µg/mL); in experiment [39], 12.5 µM (≈ 15.9 µg/mL); in experiment [51] it was 25 µM (≈ 31.8 µg/mL); in experiment [54], 25 µM (≈ 31.8 µg/mL).
